Laboratory results published in US20240076347A1, “METHODS FOR PREVENTING FUNGAL INFECTIONS” (Cidara Therapeutics, Inc., priority 2016, published 2024).
Numbered stars: 1 amine (or outer) side, 2 acyl side, 3 side chain; on linkers, the order of the positions; unused ones are H or OH. Bridge positions count the residues as written; N and C are the ends. Square brackets hold non-standard residues; d marks the D form. Peptide text beside a SMILES is read from it. * marks the point of attachment. ξ: configuration not given here. Orn(4R-OH,5R-OCH2CH2NMe3+) = C[N+](C)(C)CCO[C@@H](N[*:3])[C@H](O)C[C@H](N[*:1])C(=O)[*:2]; hTyr(3S-OH,4S-OH,3'-OSO3H) = N[C@H](C(=O)O)[C@H](O)[C@@H](O)c1ccc(O)c(OS(=O)(=O)O)c1; pTerphenylCO(4''-OnC5H11) = CCCCCOc1ccc(-c2ccc(-c3ccc(C(=O)*)cc3)cc2)cc1; Orn(4R-OH,5R-OH) = O=C([C@H](C[C@@H](O)[C@@H](O)N[*:3])N[*:1])[*:2]; hTyr(3S-OH,4S-OH) = N[C@H](C(=O)O)[C@H](O)[C@@H](O)c1ccc(O)cc1; Pro(3S-OH,4S-Me) = C[C@H]1CN[C@H](C(=O)O)[C@H]1O; X2 = CCCCCOc1ccc(-c2cc(-c3ccc(C(=O)*)cc3)no2)cc1; Gln(3R-OH) = NC(=O)C[C@@H](O)[C@H](N)C(=O)O; X1 = C[C@H]1CN([*:1])C(C(=O)[*:2])C1O; Hyp = O=C(O)[C@@H]1C[C@@H](O)CN1; ξT = CC(O)C(N)C(=O)O

Key:
[1] = test system: Aspergillus fumigatus (strain AF293); experiment: Murine model of pulmonary aspergillosis (Example 9), survival and lung burden; format: in vivo; conditions: for Group Geometric mean / Log10 Group Geometric mean / Log10 reduction from vehicle control: terminal lung burden
Description: Animal Strain and Housing. Mice used in these studies were supplied by Charles River (Margate UK) and were specific pathogen free. The strain of mice used was ICR (also known as CD1 Mice) which is a well characterized outbred murine strain. Male mice were 11-15 g on receipt at our facility and allowed to acclimatize for at least seven days.
Immunosuppression. Mice were immunosuppressed on Day −4 with 150 mg/kg cyclophosphamide IP, and on Day −1 with 150 mg/kg cyclophosphamide IP and 175 mg/kg cortisone acetate SC. To prevent bacterial infection due to the immunosuppression mice were given 50 mg/kg/day ceftazidime.
Preparation of Organism and Infection. A. fumigatus strain AF293 inoculum was prepared from spore cultures grown on Sabouraud Dextrose agar (SAB) containing 50 μg/mL chloramphenicol (SABC) in vented tissue culture flasks. Following incubation for 7-10 days at 30° C., spore cultures were washed in sterile phosphate buffered saline (PBS) containing 0.05% Tween 80. Spore count was determined using a haemocytometer and spores were diluted in PBS to ˜6.9×10^6 CFU/mL. Inoculum concentration was confirmed by quantitative culture onto SABC agar. Neutropenic mice lungs were infected with 0.04 mL (0.02 mL/nares) of ˜6.9×10^6 CFU/mL (˜2.8×10^5 cfu/mouse) of A. fumigatus strain AF293 by intranasal (IN) instillation under temporary 2.5% isoflurane induced anesthesia.
Preparation of Test Articles. Micafungin was provided as a 50 mg vial (Lot 02323002, expiry 08/2017) and was prepared as per manufacturer instructions by adding 5 mL saline for injection (SFI) directly into the vial to make a 10 mg/mL stock solution. This solution was then diluted further in SFI to a working concentration of 0.2 mg/mL. The compound was administered IP at 10 mL/kg to achieve a 2 mg/kg dose. It was prepared fresh once and stored at 4° C. between doses.
Test article CD101 stock was prepared at 2 mg/mL in 10% DMSO/1% Tween 20 diluent. A clear non particulate solution was obtained following gentle mixing. The stock was kept at 4° C. until required. Study doses of 5 mg/kg (0.5 mg/mL) and 10 mg/kg (1 mg/mL) were prepared from the 2 mg/mL stock as required by diluting in 10% DMSO/1% Tween 20 diluent. The 2 mg/mL stock was used undiluted for the 20 mg/kg study dose. All doses were administered IP at 10 mL/kg.
Treatment. For this study, treatments were initiated on day five pre-infection according to treatment groups outlined in Table 15. A total of 78 mice (six mice per treatment group) were used in the study.
Endpoints. The primary endpoint for this study was survival within agreed ethical limits (>20% weight loss, severe hypothermia <34° C., inability to reach food or drink, severe hunching). Mice were monitored by daily weight measurements with observations as frequently as clinical condition required. Mice presenting with severe clinical deterioration were humanely euthanized using an overdose of pentobarbitone administered by IP injection following clinical assessment and the time of death was recorded. Animal carcasses were stored at −20° C. for assessment of burden. Ten days post infection all surviving animals were weighed and had their clinical condition assessed prior to being euthanized. Final survival numbers were recorded and analyzed as described below and carcasses frozen at −20° C. prior to further processing.
A secondary endpoint for the study was terminal lung tissue burden. Immediately following confirmation of death, carcasses were frozen at −20° C. prior to tissue dissection and processing. The frozen carcasses were thawed at room temperature and the lungs removed and placed into pre-weighed bead-beating tubes containing 2 mL of PBS and subjected to mechanical disruption. Organ homogenates were diluted further in PBS and quantitatively cultured for A. fumigatus onto SABC and incubated at 30° C. for 24-48 hours. […]

A. fumigatus AF293 = experiment: Pulmonary aspergillosis in neutropenic ICR mice (Examples 14, 15), prophylaxis, survival; format: in vivo, Aspergillus fumigatus
Description: Pulmonary aspergillosis: ICR mice (10/grp) were made neutropenic by cyclophosphamide on Day −4 (150 mg/kg), and CPM/cortisone on Day −1 (150/175 mg/kg). Intranasal infection with A. fumigatus AF293 (10^5 CFU/mouse) on Day 0. Prophylaxis CD101 as a single dose (IP; 5, 10, 20 mg/kg) or posaconazole (PO; 2 and 10 mg/kg) 1 day prior to infection. Survival monitored for 10 days.
Pulmonary aspergillosis: ICR mice (10/grp) were made neutropenic by cyclophosphamide on Day −4 (150 mg/kg), and cyclophosphamide/cortisone was given on Day −1 (150/175 mg/kg). Intranasal challenge with A. fumigatus AF293 (10^5 CFU/mouse) was initiated on Day 0 and prophylaxis with CD101 as a single dose (IP; 5, 10, 20 mg/kg) or posaconazole (PO; 2 and 10 mg/kg) was started 1 day prior to infection. Survival was monitored for 10 days.

[2] = 5 mg/kg IP Day 0 (1 h post infection)
[3] = 2 mg/kg IP Day 0 (1 h post infection)

CCCCCOc1ccc(-c2ccc(-c3ccc(C(=O)N[C@H]4C[C@@H](O)[C@@H](OCC[N+](C)(C)C)NC(=O)C5C(O)[C@@H](C)CN5C(=O)[C@H]([C@@H](C)O)NC(=O)[C@H]([C@H](O)[C@@H](O)c5ccc(O)cc5)NC(=O)[C@@H]5C[C@@H](O)CN5C(=O)C(C(C)O)NC4=O)cc3)cc2)cc1 (stereo partly drawn) [CD101] ({pTerphenylCO(4''-OnC5H11)}-[Orn(4R-OH,5R-OCH2CH2NMe3+)][ξT][Hyp][hTyr(3S-OH,4S-OH)]T[X1]; lactam 1-C)
Mean Survival [1, 2]: 67.8 h
Median Survival [1, 2]: 64.6 h
Mean Survival ([1]; 5 mg/kg IP Day −1): 72.1 h
Median Survival ([1]; 5 mg/kg IP Day −1): 67.6 h
Mean Survival ([1]; 5 mg/kg IP Day −3): 70.0 h
Median Survival ([1]; 5 mg/kg IP Day −3): 67.7 h
Mean Survival ([1]; 5 mg/kg IP Day −5): 65.3 h
Median Survival ([1]; 5 mg/kg IP Day −5): 65.3 h
Mean Survival ([1]; 10 mg/kg IP Day −1): 121.8 h
Median Survival ([1]; 10 mg/kg IP Day −1): 81.0 h
Mean Survival ([1]; 10 mg/kg IP Day −3): 76.9 h
Median Survival ([1]; 10 mg/kg IP Day −3): 73.4 h
Mean Survival ([1]; 10 mg/kg IP Day −5): 67.2 h
Median Survival ([1]; 10 mg/kg IP Day −5): 65.7 h
survival compared to micafungin one day before infection ([1]; 10 mg/kg and 20 mg/kg IP one day before infection): statistically greater survival
Mean Survival ([1]; 20 mg/kg IP Day −1): 155.6 h
Median Survival ([1]; 20 mg/kg IP Day −1): 72.3 h
Mean Survival ([1]; 20 mg/kg IP Day −3): 91.9 h
Median Survival ([1]; 20 mg/kg IP Day −3): 69.8 h
Mean Survival ([1]; 20 mg/kg IP Day −5): 75.5 h
Median Survival ([1]; 20 mg/kg IP Day −5): 69.8 h
Group Geometric mean ([1]; 5 mg/kg IP Day 0): 5.65 × 10^4 CFU/g
Log10 Group Geometric mean ([1]; 5 mg/kg IP Day 0): 4.75 CFU/g
Log10 reduction from vehicle control ([1]; 5 mg/kg IP Day 0): −0.98 CFU/g
Group Geometric mean ([1]; 5 mg/kg IP Day −1): 3.75 × 10^4 CFU/g
Log10 Group Geometric mean ([1]; 5 mg/kg IP Day −1): 4.57 CFU/g
Log10 reduction from vehicle control ([1]; 5 mg/kg IP Day −1): −0.80 CFU/g
Group Geometric mean ([1]; 5 mg/kg IP Day −3): 5.71 × 10^4 CFU/g
Log10 Group Geometric mean ([1]; 5 mg/kg IP Day −3): 4.76 CFU/g
Log10 reduction from vehicle control ([1]; 5 mg/kg IP Day −3): −0.98 CFU/g
Group Geometric mean ([1]; 5 mg/kg IP Day −5): 6.36 × 10^4 CFU/g
Log10 Group Geometric mean ([1]; 5 mg/kg IP Day −5): 4.80 CFU/g
Log10 reduction from vehicle control ([1]; 5 mg/kg IP Day −5): −1.03 CFU/g
Group Geometric mean ([1]; 10 mg/kg IP Day −1): 5.17 × 10^3 CFU/g
Log10 Group Geometric mean ([1]; 10 mg/kg IP Day −1): 3.71 CFU/g
Log10 reduction from vehicle control ([1]; 10 mg/kg IP Day −1): 0.06 CFU/g
Group Geometric mean ([1]; 10 mg/kg IP Day −3): 7.34 × 10^3 CFU/g
Log10 Group Geometric mean ([1]; 10 mg/kg IP Day −3): 3.87 CFU/g
Log10 reduction from vehicle control ([1]; 10 mg/kg IP Day −3): −0.09 CFU/g
Group Geometric mean ([1]; 10 mg/kg IP Day −5): 3.40 × 10^4 CFU/g
Log10 Group Geometric mean ([1]; 10 mg/kg IP Day −5): 4.53 CFU/g
Log10 reduction from vehicle control ([1]; 10 mg/kg IP Day −5): −0.76 CFU/g
Group Geometric mean ([1]; 20 mg/kg IP Day −1): 1.12 × 10^4 CFU/g
Log10 Group Geometric mean ([1]; 20 mg/kg IP Day −1): 4.05 CFU/g
Log10 reduction from vehicle control ([1]; 20 mg/kg IP Day −1): −0.28 CFU/g
Group Geometric mean ([1]; 20 mg/kg IP Day −3): 4.92 × 10^4 CFU/g
Log10 Group Geometric mean ([1]; 20 mg/kg IP Day −3): 4.69 CFU/g
Log10 reduction from vehicle control ([1]; 20 mg/kg IP Day −3): −0.92 CFU/g
Group Geometric mean ([1]; 20 mg/kg IP Day −5): 8.35 × 10^3 CFU/g
Log10 Group Geometric mean ([1]; 20 mg/kg IP Day −5): 3.92 CFU/g
Log10 reduction from vehicle control ([1]; 20 mg/kg IP Day −5): −0.15 CFU/g
survival (A. fumigatus AF293; 20 mg/kg IP one day prior to infection (human 400 mg AUC equivalent)): increase in survival relative to control
survival rate (A. fumigatus AF293; 20 mg/kg IP one day prior to infection, 10 days): 30%
survival rate (A. fumigatus AF293; single dose IP (5, 10, 20 mg/kg) one day prior to infection): dose-dependent increase in survival rate

CCCCCOc1ccc(-c2cc(-c3ccc(C(=O)N[C@H]4C[C@@H](O)[C@@H](O)NC(=O)[C@@H]5[C@@H](O)[C@@H](C)CN5C(=O)[C@H]([C@H](O)CC(N)=O)NC(=O)[C@H]([C@H](O)[C@@H](O)c5ccc(O)c(OS(=O)(=O)O)c5)NC(=O)[C@@H]5C[C@@H](O)CN5C(=O)[C@H]([C@@H](C)O)NC4=O)cc3)no2)cc1 [Micafungin, micafungin, reference compound] (X2-[Orn(4R-OH,5R-OH)]T[Hyp][hTyr(3S-OH,4S-OH,3'-OSO3H)][Gln(3R-OH)][Pro(3S-OH,4S-Me)]; lactam 1-C)
Mean Survival [1, 3]: 75.3 h
Median Survival [1, 3]: 73.3 h
Mean Survival ([1]; 2 mg/kg IP Day −1): 64.7 h
Median Survival ([1]; 2 mg/kg IP Day −1): 64.7 h
Group Geometric mean ([1]; 2 mg/kg IP Day 0): 1.08 × 10^4 CFU/g
Log10 Group Geometric mean ([1]; 2 mg/kg IP Day 0): 4.03 CFU/g
Log10 reduction from vehicle control ([1]; 2 mg/kg IP Day 0): −0.26 CFU/g
Group Geometric mean ([1]; 2 mg/kg IP Day −1): 4.34 × 10^4 CFU/g
Log10 Group Geometric mean ([1]; 2 mg/kg IP Day −1): 4.64 CFU/g
Log10 reduction from vehicle control ([1]; 2 mg/kg IP Day −1): −0.86 CFU/g
survival rate (A. fumigatus AF293; 5 mg/kg (human-equivalent 100 mg)): no survivors
